# Source: patent publication US20230141403A1 (Hoffmann-La Roche Inc., priority 2020, published 2023)
# Structures can show the parent of a compound that is named as a salt.
# Tested on: Acinetobacter baumannii ATCC17978
# Test: Antimicrobial susceptibility testing: 90% growth inhibitory concentration (IC90) determination
# Type: cell-based
# Details: ATCC17978, 90% growth inhibitory concentration, Iso-Sensitest broth, optical density at 600 nm over 16h, 35±2° C., read-out: AB ATCC 17978 IC90
# Experimental: Antimicrobial Susceptibility Testing:
# 90% Growth Inhibitory Concentration (IC90) Determination
# The in vitro antimicrobial activity of the compounds was determined according to the following procedure:
# The assay used a 10-points Iso-Sensitest broth medium to measure quantitatively the in vitro activity of the compounds against Acinetobacter baumannii ATCC17961 or ATCC17978.
# Stock compounds in DMSO were serially twofold diluted (e.g. range from 50 to 0.097 μM final concentration) in 384 wells microtiter plates and inoculated with 49 μl the bacterial suspension in Iso-Sensitest medium to have a final cell concentration of ˜5×10^(5) CFU/ml in a final volume/well of 50 ul/well. Microtiter plates were incubated at 35±2° C.
# Bacterial cell growth was determined with the measurement of optical density at λ=600 nm each 20 minutes over a time course of 16h. Growth inhibition was calculated during the logarithmic growth of the bacterial cells with determination of the concentration inhibiting 50% (IC50) and 90% (IC90) of the growth.
# Table 1 provides the 90% growth inhibitory concentrations (IC90) in micromoles per liter of the compounds of present invention obtained against the strain Acinetobacter baumannii ATCC17978.
row,IC90 [µM],SMILES
1,0.13,CC(=O)Nc1ccc(Nc2nccn3c(-c4ccc(OC(F)F)cc4)cnc23)cc1C [Example 40]
2,0.28,"CCN1CCN(CC(=O)Nc2ccc(Nc3nccn4c(-c5ccc(OC(F)F)cc5)cnc34)cc2C)CC1 [Example 55, N-(4-((3-(4-(difluoromethoxy)phenyl)imidazo[1,2-a]pyrazin-8-yl)amino)-2-methylphenyl)-2-(4-ethylpiperazin-1-yl)acetamide]"
3,0.84,"COc1ccc(-c2cnc3c(Nc4ccc(NC(=O)CN5CCOCC5)cc4)nccn23)cc1Cl [Example 36, N-(4-((3-(3-chloro-4-methoxyphenyl)imidazo[1,2-a]pyrazin-8-yl)amino)phenyl)-2-morpholinoacetamide]"
4,0.67,"Cc1cc(Nc2nccn3c(-c4ccc(OC(F)F)cc4)cnc23)ccc1CO [Example 121, (4-((3-(4-(difluoromethoxy)phenyl)imidazo[1,2-a]pyrazin-8-yl)amino)-2-methylphenyl) methanol]"
5,0.26,"COc1ccc(-c2cnc3c(Nc4ccc(NC(C)=O)c(C)c4)nccn23)c(Cl)c1 [Example 86, N-(4-((3-(2-chloro-4-methoxyphenyl)imidazo [1,2-a]pyrazin-8-yl)amino)-2-methylphenyl)acetamide]"
6,0.25,"Cc1cc(Nc2nccn3c(-c4ccc(OC(F)F)c(F)c4)cnc23)ccc1N1CCCC1=O [Example 56, 1-(4-((3-(4-(difluoromethoxy)-3-fluorophenyl)imidazo [1,2-a]pyrazin-8-yl)amino)-2-methylphenyl)pyrrolidin-2-one]"
7,0.28,"COc1ccc(-c2cnc3c(Nc4ccc(NC(=O)COCCN)c(C)c4)nccn23)cc1 [Example 75, 2-(2-aminoethoxy)-N-(4-((3-(4-methoxyphenyl)imidazo[1,2-a]pyrazin-8-yl)amino)-2-methylphenyl)acetamide hydrochloride]"
8,0.55,"COc1ccc(-c2cnc3c(Nc4ccc(NC(C)=O)cc4)nccn23)c(F)c1 [Example 34, N-(4-((3-(2-fluoro-4-methoxyphenyl)imidazo[1,2-a]pyrazin-8-yl)amino)phenyl)acetamide]"
9,0.26,"COc1ccc(-c2cnc3c(Nc4ccc(N5CCCCC5=O)cc4)nccn23)cc1Cl [Example 44, 1-(4-((3-(3-Chloro-4-methoxyphenyl)imidazo[1,2-a]pyrazin-8-yl)amino)phenyl)piperidin-2-one]"
10,0.75,"C#CCOc1ccc(-c2cnc3c(Nc4ccc(NC(C)=O)cc4)nccn23)cc1 [Example 65, N-(4-((3-(4-(prop-2-yn-1-yloxy)phenyl)imidazo[1,2-a]pyrazin-8-yl)amino)phenyl)acetamide]"
11,0.74,COc1ccc(-c2cnc3c(Nc4ccc(CO)c(C)c4)nccn23)cc1 [Example 120]
12,0.2,"CCc1cc(Nc2nccn3c(-c4ccc(OC)cc4)cnc23)ccc1NC(C)=O [Example 38, N-(2-ethyl-4-((3-(4-methoxyphenyl)imidazo[1,2-a]pyrazin-8-yl)amino)phenyl)acetamide]"
13,0.82,"CC(=O)Nc1ccc(Nc2nccn3c(-c4ccc(OC(F)F)cc4)cnc23)cc1 [Example 8, N-[4-[[3-[4-(difluoromethoxy)phenyl]imidazo [1,2-a]pyrazin-8-yl]amino]phenyl] acetamide]"

# Second part, the compound before the results:
row,SMILES,IC90 [µM]
1,"Cc1cc(Nc2nccn3c(-c4ccc(Cl)cc4)cnc23)ccc1N1CCCC1=O [Example 60, 1-(4-((3-(4-chlorophenyl)imidazo[1,2-a]pyrazin-8-yl)amino)-2-methylphenyl)pyrrolidin-2-one]",0.76
2,"COc1ccc(-c2cnc3c(Nc4ccc(S(=O)(=O)NCCOCCN)c(C)c4)nccn23)cc1 [Example 61, N-(2-(2-aminoethoxy)ethyl)-4-((3-(4-methoxyphenyl)imidazo[1,2-a]pyrazin-8-yl)amino)-2-methylbenzenesulfonamide]",0.73
3,"CC(=O)Nc1ccc(Nc2nccn3c(-c4ccc(F)c(F)c4F)cnc23)cc1C [Example 87, N-(2-methyl-4-((3-(2,3,4-trifluorophenyl)imidazo[1,2-a]pyrazin-8-yl)amino)phenyl) acetamide]",0.26
4,"CC(=O)Nc1ccc(Nc2nccn3c(-c4ccc(Cl)cc4)cnc23)cc1C [Example 43, N-(4-((3-(4-chlorophenyl)imidazo[1,2-a]pyrazin-8-yl)amino)-2-methylphenyl)acetamide]",0.12
5,"COc1ccc(-c2cnc3c(Nc4ccc(S(=O)(=O)N5CCN(C)CC5)cc4)nccn23)cc1 [Example 79, 3-(4-methoxyphenyl)-N-(4-((4-methylpiperazin-1 - yl)sulfonyl)phenyl) imidazo[1,2-a]pyrazin-8-amine]",0.85
6,"CC(=O)Nc1ccc(Nc2nccn3c(-c4ccc(F)cc4F)cnc23)cc1C [Example 83, N-(4-((3-(2,4-difluorophenyl)imidazo[1,2-a]pyrazin-8-yl)amino)-2-methylphenyl)acetamide]",0.7
7,"O=C1CCCN1c1ccc(Nc2nccn3c(-c4ccc(OC(F)F)c(F)c4)cnc23)cc1 [Example 57, 1-(4-((3-(4-(difluoromethoxy)-3-fluorophenyl)imidazo [1,2-a]pyrazin-8-yl)amino)phenyl)pyrrolidin-2-one]",0.14
8,"COc1ccc(-c2cnc3c(Nc4ccc(N5CCCC5=O)c(C)c4)nccn23)cc1 [Example 58, 1-(4-((3-(4-methoxyphenyl)imidazo[1,2-a]pyrazin-8-yl)amino)-2-methylphenyl)pyrrolidin-2-one]",0.26
9,"COc1ccc(-c2cnc3c(Nc4ccc(S(=O)(=O)N5CCOCC5)cc4)nccn23)cc1 [Example 78, 3-(4-methoxyphenyl)-N-(4-(morpholinosulfonyl)phenyl)imidazo[1,2-a]pyrazin-8-amine]",0.58
10,"COc1ccc(-c2cnc3c(Nc4ccc(S(C)(=O)=O)cc4)nccn23)cc1 [Example 52, 3-(4-Methoxyphenyl)-N-(4-(methylsulfonyl)phenyl)imidazo[1,2-a]pyrazin-8-amine]",0.98
11,"COc1ccc(-c2cnc3c(Nc4ccc(NC(C)=O)c(Cl)c4)nccn23)cc1Cl [Example 46, N-(2-chloro-4-((3-(3-chloro-4-methoxyphenyl)imidazo[1,2-a]pyrazin-8-yl)amino)phenyl)acetamide]",0.89
12,"COc1ccc(-c2cnc3c(Nc4ccc(NC(C)=O)c(C)c4)nccn23)cc1 [Example 20, N-{4-[3-(4-Methoxy-phenyl)-imidazo[1,2-a]pyrazin-8-ylamino]-2-methyl-phenyl}-acetamide]",0.11
13,"COc1ccc(-c2cnc3c(Nc4ccc(NC(=O)COCCN)cc4)nccn23)cc1Cl [Example 14, 2-(2-aminoethoxy)-N-[4-[[3-(3-chloro-4-methoxy-phenyl)imidazo [1,2-a]pyrazin-8-yl]amino]phenyl] acetamide; 2,2,2-trifluoroacetic acid]",0.64
14,"CC1CCC(=O)N1c1ccc(Nc2nccn3c(-c4ccc(OC(F)F)cc4)cnc23)cc1 (centres unmarked) [Example 95, 1-(4-((3-(4-(difluoromethoxy)phenyl)imidazo[1,2-a]pyrazin-8-yl)amino)phenyl)-5-methylpyrrolidin-2-one]",0.38
15,O=C1CCCN1c1ccc(Nc2nccn3c(-c4ccc(OC(F)F)cc4)cnc23)cc1 [Example 35],0.15

# Same assay, conditions: ATCC17978, 16 h, read-out: AB ATCC 17978 IC90 (uM)
row,SMILES,IC90 [µM]
1,COc1ccc(-c2cnc3c(Nc4ccc(N(C)C(C)=O)cc4)nccn23)cc1Cl [Example 7],0.86
